Experimental data reported in patent US20210147571A1, “MONOCLONAL ANTIBODY TARGETING HUMAN TUMOR STEM CELLS AND USE THEREOF” (Suzhou Bojuhua Biomedical Technology Co. Ltd, priority 2017, published 2021).

Legend:
Bel7402-V13 cells = test: CCK8 drug resistance (cisplatin IC50) of flow-sorted cells; assay type: cell-based, human
Experimental: In order to detect the drug resistance of Hetumomab^+ liver cancer cells, Hetumomab^+ cells, parental cells and Hetumomab^− cells obtained by flow sorting sphere cells of human liver cancer cells Bel7402-V13 were seeded at 5000 cells/well in a 96-well plate. Each group of cells was cultured in a complete medium containing 8 different concentrations, i.e., 0 μg/mL, 0.0625 μg/mL, 0.125 μg/mL, 0.25 μg/mL, 0.5 μg/mL, 1 μg/mL, 2 μg/mL, and 4 μg/mL, of cisplatin. The medium was changed once every 3 days, and after 7 days, the OD value was measured by the CCK8 method to determine the IC50 reflecting drug resistance. […] Therefore, Hetumomab^+ liver cancer cells have stronger chemotherapeutic drug resistance than the parental cells and Hetumomab^− cells.

SPCA-1 cells [1] = test: as above; assay type: cell-based, human
Experimental: In order to detect the drug resistance of Hetumomab^+ lung cancer cells, Hetumomab^+ cells, parental cells and Hetumomab^− cells obtained by flow sorting sphere cells of human lung cancer cells SPCA-1 were seeded at 5000 cells/well in a 96-well plate. […] Therefore, Hetumomab^+ lung cancer cells have stronger chemotherapeutic drug resistance than the parental cells and Hetumomab^− cells.

Bel7402-V13 sphere cells = test: inhibition of cisplatin resistance (CCK-8 IC50 after antibody treatment); assay type: cell-based, human; conditions: PBS-treated Bel7402-V13 sphere cells
Experimental: (§1) Drug resistance is one of the biological features of tumor stem cells. […] Each group of cells was cultured with a medium containing 9 different concentrations, i.e., 0, 0.0625, 0.125, 0.25, 0.5, 1, 2, 4, and 8 μg/mL, of cisplatin. The complete medium containing cisplatin was replaced once every 48 hours. After 5 days, CCK-8 reagent was added according to the instructions of CCK-8 kit. OD450 absorbance values were measured, and the IC50 values for each group were calculated.

SPCA-1 cells [2] = test: as above; assay type: cell-based, human; conditions: SPCA-1 control group
Experimental: as §1

[3] = test system: Bel7402-V13 transplanted tumor; test: human liver cancer transplanted tumor treated with Hetumomab; assay type: in vivo, nude mice; conditions: cisplatin 0.3 mg/kg
Experimental: Bel7402-V13 sphere cells were inoculated subcutaneouly to nude mice at 30,000 cells/mouse. The nude mice were randomly divided into 6 groups (6 per group) as follows: the chemotherapy group (0.3 mg/kg cisplatin, 6 mice); the high dose antibody group (10 mg/kg, 6 mice); the high dose antibody+chemotherapy group (6 mice); the low dose antibody group (2.5 mg/kg, 6 mice); the low dose antibody+chemotherapy group (6 mice); and the PBS group (6 mice). The treatments were started the next day after the cells were inoculated, twice a week, and terminated after 5 weeks. The major and minor diameters of the subcutaneously transplanted tumor were measured twice a week. The tumor volume was calculated with the formula V=(π/6)×(major diameter×minor diameter×minor diameter), and the changes in tumor volume and growth rate of each group were observed. […] Tumor growth rate=(Vt−V0)/number of days, where Vt is the tumor volume at each measurement, and V0 is the tumor volume […] ([…]).

[4] = test system: SPCA-1 transplanted tumor; test: human lung cancer transplanted tumor treated with Hetumomab; assay type: in vivo, nude mice; conditions: cisplatin 0.3 mg/kg, day 28
Experimental: Specifically, the sphere cells of the human lung cancer cell line SPCA-1 were harvested and inoculated in nude mice at 2.5×10^5 cells/mouse. The mice were divided into following 5 groups, with 5 mice in each group: the PBS control group; the chemotherapy group (cisplatin 0.3 mg/kg); the high dose antibody Hetumomab group (40 mg/kg); the medium dose antibody Hetumomab group (10 mg/kg); and the low dose Hetumomab group (2.5 mg/kg). The antibody treatment was started on the second day after inoculation of lung cancer cells. The experimental groups and the control group were treated by intraperitoneal injection. The treatments were performed for 28 days after inoculation. The chemotherapeutic drug group was treated twice a week. The major and minor diameters of the subcutaneously transplanted tumors were measured twice a week. The tumor volume was calculated with the formula V=(π/6)×(major diameter×minor diameter×minor diameter). The change in tumor volume in each group was observed.

SNU-5 transplanted tumor = test: human gastric cancer transplanted tumor treated with Hetumomab; assay type: in vivo, nude mice; conditions: cisplatin 0.3 mg/kg, one month
Experimental: Specifically, the sphere cells of the human gastric cancer cell line SNU-5-V13 were harvested and inoculated in nude mice at 2.5×10^5 cells/mouse. The mice were divided into following 7 groups, with 8 mice in each group: the PBS control group; the mouse IgG control group; the chemotherapy group (cisplatin 0.3 mg/kg); the high dose antibody Hetumomab group (20 mg/kg); the low dose Hetumomab group (1.25 mg/kg); the high dose Hetumomab+chemotherapeutic drug group; and the low dose Hetumomab+chemotherapeutic drug group. The antibody treatment was started on the second day after inoculation of gastric cancer cells.
The experimental groups and the control group were treated by intraperitoneal injection. The treatments were performed for one month. The chemotherapeutic drug group was treated for 4 weeks, twice a week. The major and minor diameters of the subcutaneously transplanted tumor were measured twice a week. The tumor volume was calculated with the formula V=(π/6)×(major diameter×minor diameter×minor diameter). The change in tumor volume in each group was observed.

[5] = test system: Bel7402-V13 transplanted tumor; test: human liver cancer transplanted tumor treated with Hetuzumab H5L11; assay type: in vivo, nude mice; conditions: cisplatin 0.3 mg/kg, day 36
Experimental: Specifically, the sphere cells of the human liver cancer cell line Bel7402-V13 were harvested and inoculated subcutaneouly into nude mice at 30000 cells/mouse. […] The antibody treatments were started on the second day after inoculation of cancer cells. The experimental group and the control group were treated by intraperitoneal injection. The antibody treatments were performed for 36 days. The chemotherapeutic drug group was treated for 4 weeks, twice a week. The major and minor diameters of the subcutaneously transplanted tumor were measured twice a week. The tumor volume was calculated with the formula V=(π/6)×(major diameter×minor diameter×minor diameter). The change in tumor volume in each group was observed.

[6] = test system: Hetumomab target antigen on cells; test: cell ELISA affinity of humanized chain versions; assay type: binding, human; conditions: light chain mutant combined with heavy chain of Hetuximab
Text: Based on the H1 heavy chain sequence, two other heavy chain mutants were designed as initial humanization: H2 and H3. The degree of humanization of these versions was in descending order. […] Since H1 was the most humanized version in which the framework regions were all humanized, H1 was finally determined as the preferred humanization molecular template.
Based on the L1 with fully humanized FR region, L2 and L3 were designed, and the degree of humanization of the three version was also in descending order. […] In order to find out which key amino acids were mutated during humanization, back mutations were performed, and nine different mutants (L4-L12) were prepared.
Therefore, L6, L11, and L12 were finally selected for optimization screening of the best light chain humanized version.
However, glycosylated isomers of Hetuzumab H1 heavy chain were confirmed by antibody sequence analysis and reductive electrophoresis analysis. In the analysis of H1 heavy chain expression products by electrophoresis, H1L6, H1L11, and H1L12 were all shown with weak sub-bands visible below the main band of the heavy chain. […] This may cause serious quality problems of uniformity, which is very unfavorable for drug development. […] H4 and H5 were combined with L11, respectively, and analyzed by electrophoresis after expression. […]

N.N.[Cl][Pt][Cl] [cisplatin]
IC50 of cisplatin (Bel7402-V13 cells; Bel7402-V13 Hetumomab+ cells, 7 days): 0.739 µg/mL | IC50 of cisplatin (Bel7402-V13 cells; Bel7402-V13 Hetumomab− cells): 0.313 µg/mL | IC50 of cisplatin (Bel7402-V13 cells; Bel7402-V13 Parental Cells): 0.502 µg/mL | IC50 of cisplatin (SPCA-1 cells [1]; SPCA-1 Hetumomab+ cells): 0.707 µg/mL | IC50 of cisplatin (SPCA-1 cells [1]; SPCA-1 Hetumomab− cells): 0.180 µg/mL | IC50 of cisplatin (SPCA-1 cells [1]; SPCA-1 Parental Cells): 0.513 µg/mL | IC50 of cisplatin, control group (Bel7402-V13 sphere cells): 0.9 µg/mL | IC50 of cisplatin, control group (SPCA-1 cells [2]): 0.351 µg/mL | tumor volume inhibition rate ([3]; at drug withdrawal after 5 weeks): 83.5% | tumor growth rate ([3]; month after drug withdrawal): 0.154 cm^3/day | tumor volume inhibition rate ([3]; one month after drug withdrawal): 48.6% | Tumor Volume Inhibition Rate (%) [4]: 24.91% | Tumor Volume Inhibition Rate (%) (SNU-5 transplanted tumor): 33.16% | Tumor Volume Inhibition Rate (%) [5]: 14.52%

B1: L11: humanized light chain version L11 (SEQ ID NO:47), higher humanized version based on L6 (protein)
light: DIVMTQTPFSNPVTLGQPASISCRSSKSLLHSNGITYLYWFLQKPGQSPQLLIYQMSNLASGVPDRFSGSGSGTDFTLKISRVEAEDVGVYYCAQNLELYTFGQGTKVEIKRTVAAPSVFIFPPSDEQLKSGTASVVCLLNNFYPREAKVQWKVDNALQSGNSQESVTEQDSKDSTYSLSSTLTLSKADYEKHKVYACEVTHQGLSSPVTKSFNRGEC
modifications: Humanized light chain L11
affinity by cellular ELISA [6]: close to that of L6
